The text below walks through data of patent US20220298163A1, “BTK INHIBITORS WITH IMPROVED DUAL SELECTIVITY” (BEIGENE, LTD., priority 2017, published 2022).

In general, AUC(0-inf) refers to total exposure, with the tail of the curve extrapolated. A lower AUC(0-inf) goes with low exposure. As usually defined, the bioavailability is the share of a dose that reaches the circulation, judged against a reference dose that is usually intravenous. A lower bioavailability goes with little systemic uptake. What is called clearance is a measure of how efficiently the substance is removed, as volume per time. Low readings indicate inefficient removal, high ones efficient removal. Broadly, the Cmax is the maximum level reached in the sampled fluid or tissue. Broadly, the IC50 is the point on the concentration scale where inhibition reaches its midpoint.

The nature of data set [1]: Rat pharmacokinetic study. As to conditions: for AUC(0-inf) / bioavailability / clearance / Cmax: male, Sprague Dawley, plasma, rat; for AUC(0-inf): IV 1 mg·kg^−1 / PO 5 mg·kg^−1 study, route not given; for bioavailability: oral bioavailability, PO 5 mg·kg^−1 vs IV 1 mg·kg^−1; for clearance: single IV 1 mg·kg^−1; for Cmax: single PO 5 mg·kg^−1. The class given is in vivo, Male Sprague Dawley rats.

A further data set deals with EGFR (Homo sapiens, UniProt P00533). Put plainly: Biochemical kinase selectivity: IC50 determination of EGFR. As to conditions: for IC50: TR-FRET, 20 μM ATP; for Fold of EGFR/Btk: ratio of IC50 values. (In general: In TR-FRET formats the signal depends on donor and acceptor labels being close together.)
Another data set concerns the target T1, Tec (Homo sapiens, UniProt P42680).
T1 sequence (P42680 1-631): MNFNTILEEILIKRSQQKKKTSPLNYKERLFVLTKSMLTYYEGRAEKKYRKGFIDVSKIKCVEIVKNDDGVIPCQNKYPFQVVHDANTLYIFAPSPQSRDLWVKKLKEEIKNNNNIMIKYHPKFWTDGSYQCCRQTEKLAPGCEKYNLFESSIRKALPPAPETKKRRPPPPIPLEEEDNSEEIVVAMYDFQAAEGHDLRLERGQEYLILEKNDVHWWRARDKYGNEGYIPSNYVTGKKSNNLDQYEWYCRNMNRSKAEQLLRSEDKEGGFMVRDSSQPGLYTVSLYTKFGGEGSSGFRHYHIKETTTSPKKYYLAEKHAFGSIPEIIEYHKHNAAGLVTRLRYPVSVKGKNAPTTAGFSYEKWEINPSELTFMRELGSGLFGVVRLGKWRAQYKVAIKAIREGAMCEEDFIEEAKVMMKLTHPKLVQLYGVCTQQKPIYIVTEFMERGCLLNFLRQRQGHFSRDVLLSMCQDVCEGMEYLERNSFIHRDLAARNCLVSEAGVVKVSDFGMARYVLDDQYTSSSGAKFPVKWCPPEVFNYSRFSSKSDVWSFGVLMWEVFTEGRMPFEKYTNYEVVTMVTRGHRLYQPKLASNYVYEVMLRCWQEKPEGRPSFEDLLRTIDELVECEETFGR
Put plainly: Biochemical kinase selectivity: IC50 determination of Tec. As to conditions: for IC50: TR-FRET, 280 μM ATP; for Fold of Tec/Btk: ratio of IC50 values.

The target in data set [2] is T2, phosphorylated Btk at Tyr223 (Homo sapiens, UniProt Q06187).
T2 construct: determine the endogenous levels of phosphorylated Btk at Tyr223; endogenous in cells; host or cells: Ramos cells (CRL-1596, ATCC)
As to the kind of experiment: Btk pY223 cellular assay (HTRF, Ramos cells). The class given is cell-based. As to conditions: compound 3 hours, pervanadate or Na3VO4 stimulation, read-out: IC50 (nM) in cell Btk pY223.
Procedure: Btk pY223 cellular assay is an HTRF based assay intended to determine the endogenous levels of phosphorylated Btk at Tyr223.
Briefly, Ramos cells were serum starved in 0.5% FBS-containing RPMI1640 overnight. The cells were then incubated with interested compounds at various concentrations in a CO2 incubator for 3 hours. After the incubation, cells were stimulated with 1 mM pervanadate (PV) or Na3VO4 (OV) for 20 min. Then, the cells were collected and lysed with 1× lysis buffer at RT for 10 min (4× lysis buffer supplied in the kit). 1× antibody mix was prepared by diluting anti-Btk-d2 and anti-pBtk-K in detection buffer (supplied in the kit). […] After mixing gently and spinning briefly, the plate was sealed up and kept in dark at RT for 18 hours. […] IC50 values were calculated with GraphPad Prism software using the sigmoidal dose-response function.

For data set [3] the following is noted: other Btk inhibitors, meeting abstract 2016; cited from earlier work.
For data set [4], the target named is T3, Btk kinase (aa2-659, Carna Biosciences) (Homo sapiens, UniProt Q06187).
T3 construct: purchased Carna Biosciences
Put plainly: Btk kinase enzymatic assay (TR-FRET). The class given is biochemical. Particulars: for IC50: TR-FRET, 30 μM ATP, compound incubated with kinase 60 minutes.

T2 sequence (Q06187 whole entry): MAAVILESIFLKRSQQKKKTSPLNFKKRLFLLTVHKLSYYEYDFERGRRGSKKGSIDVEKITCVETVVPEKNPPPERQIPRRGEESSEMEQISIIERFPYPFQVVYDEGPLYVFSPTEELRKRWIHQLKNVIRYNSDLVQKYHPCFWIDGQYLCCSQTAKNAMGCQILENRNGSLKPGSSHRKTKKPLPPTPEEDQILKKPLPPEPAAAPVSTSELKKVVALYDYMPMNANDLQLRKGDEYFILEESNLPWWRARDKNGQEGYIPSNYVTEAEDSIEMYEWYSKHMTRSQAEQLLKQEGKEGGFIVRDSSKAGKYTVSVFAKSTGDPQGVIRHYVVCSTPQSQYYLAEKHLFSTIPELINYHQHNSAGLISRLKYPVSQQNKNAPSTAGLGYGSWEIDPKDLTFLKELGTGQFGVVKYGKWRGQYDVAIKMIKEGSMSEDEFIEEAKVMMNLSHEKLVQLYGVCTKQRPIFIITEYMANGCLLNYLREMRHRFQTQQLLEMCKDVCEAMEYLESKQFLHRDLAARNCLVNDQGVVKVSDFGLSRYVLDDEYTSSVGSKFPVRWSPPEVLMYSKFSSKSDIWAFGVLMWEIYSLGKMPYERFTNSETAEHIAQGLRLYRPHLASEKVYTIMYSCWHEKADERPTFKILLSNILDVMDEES
T3 sequence (Q06187 2-659): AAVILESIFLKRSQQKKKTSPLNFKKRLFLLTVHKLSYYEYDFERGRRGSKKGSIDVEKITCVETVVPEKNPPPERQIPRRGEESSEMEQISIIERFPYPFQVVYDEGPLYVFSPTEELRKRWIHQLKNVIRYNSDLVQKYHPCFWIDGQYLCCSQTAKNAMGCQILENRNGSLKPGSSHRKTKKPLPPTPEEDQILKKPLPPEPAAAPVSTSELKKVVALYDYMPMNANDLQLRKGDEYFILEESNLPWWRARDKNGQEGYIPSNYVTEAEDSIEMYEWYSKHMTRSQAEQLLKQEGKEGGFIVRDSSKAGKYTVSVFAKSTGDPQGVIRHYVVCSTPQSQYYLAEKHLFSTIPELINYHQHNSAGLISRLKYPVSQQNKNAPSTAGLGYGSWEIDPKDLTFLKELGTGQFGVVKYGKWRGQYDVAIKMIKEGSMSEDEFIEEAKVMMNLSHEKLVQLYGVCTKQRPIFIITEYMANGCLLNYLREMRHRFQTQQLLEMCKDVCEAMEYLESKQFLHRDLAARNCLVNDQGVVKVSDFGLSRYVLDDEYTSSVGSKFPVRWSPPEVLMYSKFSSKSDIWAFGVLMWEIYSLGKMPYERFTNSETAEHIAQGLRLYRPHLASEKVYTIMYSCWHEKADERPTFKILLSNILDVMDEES
EGFR, sequence (P00533 25-1210): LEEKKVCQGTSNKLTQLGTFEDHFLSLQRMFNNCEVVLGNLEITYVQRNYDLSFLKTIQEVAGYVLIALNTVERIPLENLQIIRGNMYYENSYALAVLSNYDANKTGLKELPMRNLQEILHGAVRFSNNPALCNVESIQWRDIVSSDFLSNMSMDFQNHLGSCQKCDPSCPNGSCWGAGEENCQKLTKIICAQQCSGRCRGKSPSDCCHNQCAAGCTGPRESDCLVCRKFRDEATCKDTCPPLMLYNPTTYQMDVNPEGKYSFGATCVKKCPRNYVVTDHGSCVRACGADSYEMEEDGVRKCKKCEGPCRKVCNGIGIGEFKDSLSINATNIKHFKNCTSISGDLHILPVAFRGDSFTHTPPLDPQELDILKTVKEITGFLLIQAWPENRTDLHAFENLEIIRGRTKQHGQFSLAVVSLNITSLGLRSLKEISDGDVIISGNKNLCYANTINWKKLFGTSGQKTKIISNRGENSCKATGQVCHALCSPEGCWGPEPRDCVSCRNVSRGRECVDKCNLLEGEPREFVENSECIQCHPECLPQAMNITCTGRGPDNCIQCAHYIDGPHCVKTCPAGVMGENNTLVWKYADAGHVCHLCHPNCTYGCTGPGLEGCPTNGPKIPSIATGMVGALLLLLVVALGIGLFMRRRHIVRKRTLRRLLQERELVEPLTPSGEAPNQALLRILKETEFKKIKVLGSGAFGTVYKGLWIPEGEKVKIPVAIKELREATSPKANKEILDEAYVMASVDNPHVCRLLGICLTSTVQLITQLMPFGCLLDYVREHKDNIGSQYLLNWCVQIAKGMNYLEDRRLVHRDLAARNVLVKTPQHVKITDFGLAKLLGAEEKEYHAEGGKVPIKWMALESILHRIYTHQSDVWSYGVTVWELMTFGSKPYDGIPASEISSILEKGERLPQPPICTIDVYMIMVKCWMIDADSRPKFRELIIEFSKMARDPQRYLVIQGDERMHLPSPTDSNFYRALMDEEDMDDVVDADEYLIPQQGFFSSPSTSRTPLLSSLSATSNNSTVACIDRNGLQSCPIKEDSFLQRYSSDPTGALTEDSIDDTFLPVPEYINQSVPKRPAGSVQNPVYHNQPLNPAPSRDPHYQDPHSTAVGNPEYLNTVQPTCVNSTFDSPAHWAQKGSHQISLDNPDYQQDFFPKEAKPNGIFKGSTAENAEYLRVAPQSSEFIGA

In data set [1], `C=CC(=O)N1CCC(C2CCNc3c(C(N)=O)c(-c4cc(OC)c(C5CC5)c(OC)c4)nn32)CC1` (single isomer, unassigned) [Example A2a, (S or R)-7-(1-acryloylpiperidin-4-yl)-2-(4-cyclopropyl-3,5-dimethoxyphenyl)-4,5,6,7-tetrahydropyrazolo[1,5-a]pyrimidine-3-carboxamide] came in with an AUC(0-inf) of 1710 ng·h/mL, a bioavailability of 73.7%, a clearance of 42.8 mL/min/kg and a peak concentration (Cmax) of 859 ng/mL. For the same compound, the “plasma clearance, Cmax, AUC and oral bioavailability compared to compound 167*” value in data set [1] (rat PK study, Table IV) was “lower plasma clearance values, higher Cmax, AUC and oral bioavailability”.

Compound `C=CC(=O)Nc1ccccc1C1CCNc2c(C(N)=O)c(-c3cc(OC)c(OC)c(OC)c3)nn21` (stereo not shown) [167^#] displayed an IC50 at EGFR of 9.5 nM. At Tec, this compound displayed a half-maximal inhibitory concentration (IC50) of 157 nM. In addition, the 50% inhibitory concentration (IC50) in data set [2] stood at 83.5 nM. In addition, in data set [1], the AUC(0-inf) stood at 65.1 ng·h/mL, the bioavailability is 11.8%, the clearance was 152 mL/min/kg and the Cmax was 60.4 ng/mL.

Consider `CC#CC(=O)N1CCC[C@H]1c1nc(-c2ccc(C(=O)Nc3ccccn3)cc2)c2c(N)nccn12` [ACP-196], for which the “bleeding adverse event (in words)” value in data set [3] is given as “Bleeding as a common adverse event (AE)”.

On to `C=CC(=O)N1CCC([C@@H]2CCNc3c(C(N)=O)c(-c4ccc(Oc5ccccc5)cc4)nn32)CC1` [BGB-3111], for which, in data set [3], the “bleeding adverse event (in words)” value was “Bleeding as a common adverse event (AE)”.

In the case of `C=CC(=O)N1CC(C2CCNc3c(C(N)=O)c(-c4cc(OC)c(C)c(OC)c4)nn32)C1` (stereo not shown) [Example B3, 7-(1-acryloylazetidin-3-yl)-2-(3,5-dimethoxy-4-methylphenyl)-4,5,6,7-tetrahydropyrazolo[1,5-a]pyrimidine-3-carboxamide], the IC50 in data set [4] came to 5.9 nM; against EGFR it was 1910 nM; against Tec, 157 nM; in data set [2], 93.1 nM. In addition, at EGFR, the “Fold of EGFR/Btk” value amounted to 324 fold. Besides, the “Fold of Tec/Btk” value on Tec is reported as 27 fold.

In the case of `C=CC(=O)N1CC2CNc3c(C(N)=O)c(-c4cc(OC)c(C)c(OC)c4)nn3C2C1` (stereo not shown) [Example C1, 7-acryloyl-2-(3,5-dimethoxy-4-methylphenyl)-5,5a,6,7,8,8a-hexahydro-4H-pyrazolo[1,5-a]pyrrolo[3,4-e]pyrimidine-3-carboxamide], in data set [4], the “affinity / inhibitory activity for Btk (in words)” value was “high affinity for Btk” and the 50% inhibitory concentration (IC50) was found to be 3.4 nM. Also, at EGFR, half-maximal inhibition (IC50) was put at 536 nM and the “Fold of EGFR/Btk” value came out at 158 fold. For the same compound, at Tec, the IC50 was determined as 380 nM and the “Fold of Tec/Btk” value was 112 fold. Besides, the half-inhibitory concentration (IC50) in data set [2] worked out at 49.6 nM.

Regarding `CC#CC(=O)N1CC[C@@H](n2c(=O)n(-c3ccc(Oc4ccccc4)cc3)c3c(N)ncnc32)C1` [ONO-4059], the “bleeding adverse event (in words)” value in data set [3] is reported as “Bleeding as a common adverse event (AE)”.
